Test results from patent publication US9980943B2, “Methods of treating muscular dystrophy” (BOARD OF REGENTS OF THE NEVADA SYSTEM OF HIGHER EDUCATION, …, priority 2013, dated 2018).

Legend:
Format in all cases: cell-based, mouse
[1] = tested on: α7 integrin (LacZ reporter in α7+/LacZ myotubes); test: Myotube α7 integrin FDG assay (Burkin assay in myotubes, 96-well); details: myotubes
[2] = tested on: β-galactosidase in CMV-LacZ C2C12 myotubes; test: CMV-LacZ secondary screen in C2C12 myotubes (β-Gal stabilizing assay); details: for CMV-LACZ in Myotubes (β-galactosidase activity relative to DMSO): CMV-LacZ C2C12 myotubes, 96-well format
In short: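 A secondary screen identifies compounds that stabilize β-gal independently of the native promoter, using CMV-LacZ C2C12 cells. Curves span 0.5–40 μM at six levels, in duplicate.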

[3] = tested on: α7 integrin (LacZ reporter in α7βgal+/− myoblasts); test: Myoblast α7+/LacZ integrin FDG assay (Burkin assay in myoblasts, 96-well); details: α7+/LacZ myoblasts, 96-well
[4] = 5 uM, C2C12 CMV-LacZ myotubes, fold relative to DMSO
[5] = 10 uM, C2C12 CMV-LacZ myotubes, fold relative to DMSO
[6] = 20 uM, C2C12 CMV-LacZ myotubes, fold relative to DMSO
[7] = 40 uM, C2C12 CMV-LacZ myotubes, fold relative to DMSO

Compound | Burkin Assay in Myotubes, α7 integrin LacZ reporter signal relative to DMSO ([1]; 0.5 uM) | Burkin Assay in Myotubes, α7 integrin LacZ reporter signal relative to DMSO ([1]; 1 uM) | Burkin Assay in Myotubes, α7 integrin LacZ reporter signal relative to DMSO ([1]; 5 uM) | Burkin Assay in Myotubes, α7 integrin LacZ reporter signal relative to DMSO ([1]; 10 uM) | CMV-LACZ in Myotubes, signal relative to DMSO [2, 4] | CMV-LACZ in Myotubes, signal relative to DMSO [2, 5] | CMV-LACZ in Myotubes, signal relative to DMSO [2, 6] | CMV-LACZ in Myotubes, signal relative to DMSO [2, 7] | Burkin Assay in Myotubes (signal relative to DMSO) ([1]; 0.5 uM) | Burkin Assay in Myotubes (signal relative to DMSO) ([1]; 1 uM) | Burkin Assay in Myotubes (signal relative to DMSO) ([1]; 5 uM) | Burkin Assay in Myotubes (signal relative to DMSO) ([1]; 10 uM) | Burkin Assay in Myotubes (signal relative to DMSO) ([1]; 20 uM) | Burkin Assay in Myotubes (signal relative to DMSO) ([1]; 40 uM) | Burkin Assay in Myoblasts, value relative to DMSO ([3]; 0.5 uM) | Burkin Assay in Myoblasts, value relative to DMSO ([3]; 1 uM) | Burkin Assay in Myoblasts, value relative to DMSO ([3]; 5 uM) | Burkin Assay in Myoblasts, value relative to DMSO ([3]; 10 uM) | Burkin Assay in Myoblasts, value relative to DMSO ([3]; 20 uM) | Burkin Assay in Myoblasts, value relative to DMSO ([3]; 40 uM) | other results
CC(=O)Nc1ccc(N(C(=O)c2cnccn2)C(C(=O)NC2CCCCC2)c2ccc(F)cc2)cc1 (centres unmarked) [MLS001225507-01] | 0.9321 | 0.6741 | 1.013 | 1.002 | 1.04 | 0.994 | 0.8655 | 0.8805 |  |  |  |  |  |  |  |  |  |  |  |  | Burkin Assay in Myotubes, α7 integrin LacZ reporter signal relative to DMSO ([1]; 20 uM): 1.175; Burkin Assay in Myotubes, α7 integrin LacZ reporter signal relative to DMSO ([1]; 40 uM): 0.9539; Burkin Assay in Myoblasts, signal relative to DMSO ([3]; 0.5 uM): 1.0374; Burkin Assay in Myoblasts, signal relative to DMSO ([3]; 1 uM): 0.9444; Burkin Assay in Myoblasts, signal relative to DMSO ([3]; 5 uM): 0.9036; Burkin Assay in Myoblasts, signal relative to DMSO ([3]; 10 uM): 0.8292; Burkin Assay in Myoblasts, signal relative to DMSO ([3]; 20 uM): 0.8685; Burkin Assay in Myoblasts, signal relative to DMSO ([3]; 40 uM): 0.888
COCCN1C=C(C(=O)OC)C(c2ccccc2Cl)C(C(=O)OC)=C1 [MLS000718886-01] |  |  |  |  |  |  |  |  | 0.9819 | 0.9591 | 1.068 | 0.9981 | 0.938 | 0.9785 | 1.052 | 0.9394 | 1.087 | 0.9661 | 0.9124 | 0.8139 | CMV-LACZ in Myotubes (β-galactosidase activity relative to DMSO) ([2]; 5 uM): 0.9787; CMV-LACZ in Myotubes (β-galactosidase activity relative to DMSO) ([2]; 10 uM): 0.9804; CMV-LACZ in Myotubes (β-galactosidase activity relative to DMSO) ([2]; 20 uM): 0.8798; CMV-LACZ in Myotubes (β-galactosidase activity relative to DMSO) ([2]; 40 uM): 0.8355
Nc1nccc(-c2ccc(-n3cnc4ccccc43)cc2)n1 [MLS000763405-01] |  |  |  |  |  |  |  |  |  |  |  |  |  |  |  |  |  |  |  |  | fold induction at 0.5 µM ([1]; Mus musculus, Myotube, 0.5 uM, read-out: Burkin Assay in Myotubes, α7 integrin LacZ reporter signal relative to DMSO): 1.03; fold induction at 1 µM ([1]; Mus musculus, Myotube, 1 uM, read-out: Burkin Assay in Myotubes, α7 integrin LacZ reporter signal relative to DMSO): 1.14; fold induction at 5 µM ([1]; Mus musculus, Myotube, 5 uM, read-out: Burkin Assay in Myotubes, α7 integrin LacZ reporter signal relative to DMSO): 1.21; fold induction at 10 µM ([1]; Mus musculus, Myotube, 10 uM, read-out: Burkin Assay in Myotubes, α7 integrin LacZ reporter signal relative to DMSO): 1.11; fold induction at 20 µM ([1]; Mus musculus, Myotube, 20 uM, read-out: Burkin Assay in Myotubes, α7 integrin LacZ reporter signal relative to DMSO): 1.45; fold induction at 40 µM ([1]; Mus musculus, Myotube, 40 uM, read-out: Burkin Assay in Myotubes, α7 integrin LacZ reporter signal relative to DMSO): 1.38; fold induction at 5 µM ([2]; Mus musculus, C2C12, read-out: CMV-LACZ in Myotubes, signal relative to DMSO, 5 uM, C2C12 CMV-LacZ myotubes, fold relative to DMSO): 1.05; fold induction at 10 µM ([2]; Mus musculus, C2C12, read-out: CMV-LACZ in Myotubes, signal relative to DMSO, 10 uM, C2C12 CMV-LacZ myotubes, fold relative to DMSO): 0.876; fold induction at 20 µM ([2]; Mus musculus, C2C12, read-out: CMV-LACZ in Myotubes, signal relative to DMSO, 20 uM, C2C12 CMV-LacZ myotubes, fold relative to DMSO): 0.824; fold induction at 40 µM ([2]; Mus musculus, C2C12, read-out: CMV-LACZ in Myotubes, signal relative to DMSO, 40 uM, C2C12 CMV-LacZ myotubes, fold relative to DMSO): 0.802; fold induction at 0.5 µM ([3]; Mus musculus, Myoblast, 48 h, 0.5 uM, read-out: Burkin Assay in Myoblasts, signal relative to DMSO): 0.961; fold induction at 1 µM ([3]; Mus musculus, Myoblast, 48 h, 1 uM, read-out: Burkin Assay in Myoblasts, signal relative to DMSO): 1.03; fold induction at 5 µM ([3]; Mus musculus, Myoblast, 48 h, 5 uM, read-out: Burkin Assay in Myoblasts, signal relative to DMSO): 1.46; fold induction at 10 µM ([3]; Mus musculus, Myoblast, 48 h, 10 uM, read-out: Burkin Assay in Myoblasts, signal relative to DMSO): 1.53; fold induction at 20 µM ([3]; Mus musculus, Myoblast, 48 h, 20 uM, read-out: Burkin Assay in Myoblasts, signal relative to DMSO): 1.47; fold induction at 40 µM ([3]; Mus musculus, Myoblast, 48 h, 40 uM, read-out: Burkin Assay in Myoblasts, signal relative to DMSO): 1.08
O=C(COc1cc2oc(=O)c3c(c2cc1Cl)CCCC3)NCC1CCC(C(=O)O)CC1 (centres unmarked) [MLS001157804-01] |  |  |  |  | 0.703 | 0.9842 | 1.05 | 1.07 | 1.045 | 1.013 | 1.031 | 1.083 | 1.069 | 1.188 | 0.879 | 0.9385 | 0.998 | 1.117 | 1.052 | 1.104 | 
O=C(Nc1ccc(Oc2cccnc2)cc1)c1ccccc1Cl [MLS000574647-01] | 0.935 | 0.8646 | 1.007 | 0.8596 | 0.9166 | 0.9364 | 0.962 | 1.0095 |  |  |  |  |  |  |  |  |  |  |  |  | Burkin Assay in Myotubes, α7 integrin LacZ reporter signal relative to DMSO ([1]; 20 uM): 1.006; Burkin Assay in Myotubes, α7 integrin LacZ reporter signal relative to DMSO ([1]; 40 uM): 0.8219; Burkin Assay in Myoblasts, signal relative to DMSO ([3]; 0.5 uM): 1.081; Burkin Assay in Myoblasts, signal relative to DMSO ([3]; 1 uM): 1.027; Burkin Assay in Myoblasts, signal relative to DMSO ([3]; 5 uM): 0.9641; Burkin Assay in Myoblasts, signal relative to DMSO ([3]; 10 uM): 0.9515; Burkin Assay in Myoblasts, signal relative to DMSO ([3]; 20 uM): 0.8985; Burkin Assay in Myoblasts, signal relative to DMSO ([3]; 40 uM): 0.8343
CCCCNC(=O)CSc1nnc(Cc2ccc(Cl)c(Cl)c2)c(=O)[nH]1 [MLS001177259-01] | 0.948 | 1.053 | 0.9988 | 1.044 | 0.9462 | 0.7316 | 0.8543 | 1.1 |  |  |  |  |  |  |  |  |  |  |  |  | Burkin Assay in Myotubes, α7 integrin LacZ reporter signal relative to DMSO ([1]; 20 uM): 0.8187; Burkin Assay in Myotubes, α7 integrin LacZ reporter signal relative to DMSO ([1]; 40 uM): 0.9237; Burkin Assay in Myoblasts, signal relative to DMSO ([3]; 0.5 uM): 0.9606; Burkin Assay in Myoblasts, signal relative to DMSO ([3]; 1 uM): 0.9896; Burkin Assay in Myoblasts, signal relative to DMSO ([3]; 5 uM): 0.9735; Burkin Assay in Myoblasts, signal relative to DMSO ([3]; 10 uM): 0.9165; Burkin Assay in Myoblasts, signal relative to DMSO ([3]; 20 uM): 0.7694; Burkin Assay in Myoblasts, signal relative to DMSO ([3]; 40 uM): 0.7773
CCCC(=O)Nc1ccccc1NC(=O)c1ccc(OCC)cc1 [MLS000685139-01] |  |  |  |  |  |  |  |  | 0.8703 | 0.9202 | 1.128 | 1.24 | 1.102 | 1.267 | 0.8234 | 0.6285 | 0.8416 | 0.776 | 0.9893 | 0.9848 | CMV-LACZ in Myotubes (β-galactosidase activity relative to DMSO) ([2]; 5 uM): 0.9362; CMV-LACZ in Myotubes (β-galactosidase activity relative to DMSO) ([2]; 10 uM): 1.036; CMV-LACZ in Myotubes (β-galactosidase activity relative to DMSO) ([2]; 20 uM): 1.031; CMV-LACZ in Myotubes (β-galactosidase activity relative to DMSO) ([2]; 40 uM): 0.9387
CCOc1ccc2ccccc2c1C1NC(=O)N(C)C(C)=C1C(=O)OCCOC (centres unmarked) [MLS001167424-01] |  |  |  |  | 0.7491 | 0.9718 | 1.157 | 0.9925 | 1.046 | 0.9596 | 1.365 | 0.7848 | 1.0277 | 0.9779 | 0.9904 | 1.428 | 0.8924 | 0.907 | 0.7995 | 0.8164 | 
